# Test results taken from patent US8362031B2, “Lonidamine analogues and treatment of polycystic kidney disease” (University of Kansas, priority 2004, dated 2013).
# Experiments:
# rats = test: Animal tolerance studies of GMZ; format: in vivo, rat
# Description: The parent compound of GMZ, Lonidamine, inhibits the chloride channel CFTR, interferes with cellular energy output and has been used as an anticancer drug. […] GMZ binds directly to Hsp90-beta and eukaryotic elongation factor eEF1A as shown by affinity chromatography and direct binding studies.
# ADPKD cells = test: Wound-healing scratch assay (cell migration); format: cell-based, human
# Method: Gamendazole (GMZ) was tested to determine if it inhibits cell migration. Briefly, ADPKD cells were plated on a 12-well cell culture plate in 5% FBS-containing medium and allowed to form a confluent monolayer. The monolayer was wounded using a P-200 pipette tip and the medium changed to include increasing concentrations of gamendazole. Images of three different fields per well were captured at 10× magnification immediately after wounding and at 4, 8 and 24 hours post-wounding. GMZ was tested at 0, 10, 50, and 100 uM. Area of the wound was measured at each time point using NIH Image J program. Percentage of wound closure was calculated by subtracting the area of the wound at any given time point from the 0 h wound area expressed as a percentage of the 0 h wound area. Statistical analysis was done to compare the GMZ-treated cells to untreated cells at each time point using One-way ANOVA and the Tukey HSD test for pair-wise comparisons.
smiles,measurement,setting,value
"O=C(O)CCc1nn(Cc2ccc(Cl)cc2Cl)c2cc(C(F)(F)F)ccc12 [GMZ, 3-[1-(2,4-dichlorobenzyl)-6-trifluoromethyl-1H-indazol-3-yl]-propionic acid]",histopathology,rats; 25 mg/kg of IP dosage,no apparent histopathology in any organ
same,behavioral or body weight changes,"rats; rats, five days post-treatment",no evidence of behavioral or body weight changes
same,cell migration (percentage of wound closure),"ADPKD cells; 10, 50 and 100 uM, 4, 8 and 24 hours post-wounding",significant inhibition of cell migration at all concentrations of GMZ tested and at all time points
same,wound closure,ADPKD cells; even at low concentration (10 uM),unable to accomplish wound closure
